The text below walks through data of publication PMC9655618 (Cancers, 2022).

One experiment concerns PBMC. Description: MTT cell viability assay. Type of experiment: cell-based. The settings on record: Homo sapiens, 72 h, 10%FBS growth media. As for the experimental part: (§1) Straightforward, the tetrazolium salt 3-(4,5-methyltiazol-2yl-)-2,5diphenyl-tetrazolium bromide (MTT) (Applichen, Darmstadt, Germany) was added to cells, incubated for 2–4 h at 37 °C, and lysed in 10% SDS.
On the technique in general: Formazan colour is commonly taken as a measure of viable cells.

The subject of another experiment is VERO cells. Nature of the experiment: MTT cell viability assay. Particulars: 72 h, 10%FBS growth media. Format: cell-based, monkey. As for the experimental part:
as §1

The next experiment deals with T47D cells. Nature of the experiment: MTT cell viability assay. Format: cell-based, human. The settings on record: 72 h, 10%FBS growth media. As for the experimental part: (§2) Straightforward, the tetrazolium salt 3-(4,5-methyltiazol-2yl-)-2,5diphenyl-tetrazolium bromide (MTT) (Applichen, Darmstadt, Germany) was added to cells, incubated for 2–4 h at 37 °C, and lysed in 10% SDS. The mitochondrial metabolization of the tetrazolium salt was determined by the analysis of the optical density at 595 nm, measured with the iMark microplate Reader (Bio–Rad, Irvine, CA, USA).

A further experiment relates to Hs-578T cells. Description: MTT cell viability assay. Format: cell-based, human. Particulars: 72 h, 10%FBS growth media. Here is the method: as §1
For another experiment, the system named is BT-549 cells. Description: MTT cell viability assay. Type of experiment: cell-based, human. Particulars: 10%FBS growth media. Here is the method:
as §1

In another experiment the test system is MCF-7/BUS cells. Nature of the experiment: MTT cell viability assay. Type of experiment: cell-based, human. The settings on record: 72 h, 10%FBS growth media, MTT, read-out: IC50 (μM) MCF-7/BUS. Here is the method: as §1
A further experiment concerns SK-BR-3 cells. Description: MTT cell viability assay. Format: cell-based, human. The settings on record: 10%FBS growth media. Here is the method:
as §1

Another experiment concerns Ishikawa cells. Nature of the experiment: MTT cell viability assay. Type of experiment: cell-based, human. The settings on record: read-out: IC50 (μM) ISHIKAWA, 72 h, 10%FBS growth media. As for the experimental part:
as §1

The subject of another experiment is MDA-MB-231 cells. Description: MTT cell viability assay. Format: cell-based, human. Particulars: 10%FBS growth media. Here is the method: as §1
The subject of the next experiment is MCF-10A cells. Nature of the experiment: MTT cell viability assay. The settings on record: 72 h, 10%FBS growth media. Type of experiment: cell-based, human. Here is the method: as §1
The subject of a further experiment is MCF-7 cells. Description: MTT cell viability assay. The settings on record: 10%FBS growth media. Type of experiment: cell-based, human. As for the experimental part: as §1
The subject of experiment [1] is ERα, pS2 and PR mRNA in Ishikawa cells. Nature of the experiment: Quantitative real-time PCR of ERα-regulated genes. Format: cell-based, human. The settings on record: 3 h pretreatment, E2 10 nM 24 h. As for the experimental part: (§3) For gene expression analysis, MCF-7 and Ishikawa cells were deprived of steroid hormones by using a 10DCC-FBS medium for five days. Then, 1,500,000 cells/dish were seeded in 5DCC-FBS, followed by treatment with test compounds. Total RNA was isolated by using TRItidy G™ (Panreac Applichem ITW Reagents, Darmstadt, Germany). The concentration and purity of RNA were determined with a NanoDrop 1000 spectrophotometer (Wilmington, NC, USA). Then, 1 µg of total RNA was reversed and amplified with the iScriptTM kit (Bio-Rad) following the manufacturer’s protocol. SYBR Green PCR Master mix (Applied Biosystems, Bedford, MA, USA) reagent and exon-specific primers for ERα were used for Real-time quantitative PCR (qPCR). Gene expression was analyzed with an Mx3005P qPCR System (Agilent, Santa Clara, CA, USA), and cycle threshold values were calculated using MxPro qPCR Software (Agilent, CA, USA). Target gene expression was normalized to the expression of the 18S housekeeping gene. Data were expressed as relative expression values according to the comparative CT method for qPCR [42].

Experiment [2] has as its system ERα, pS2 and PR mRNA in MCF-7 cells. Nature of the experiment: Quantitative real-time PCR of ERα-regulated genes. Particulars: 3 h pretreatment, E2 10 nM 24 h; 32 5 µM, 35 10 µM, ICI 0.1 µM, 4-OHTAM 1 µM. Format: cell-based, human. Here is the method: as §3
In general terms: In qPCR the cycle at which signal appears reflects the starting amount.

Experiment [3] deals with ERα-mediated transcription (3xERE-luciferase), T47D-KBluc cells. Description: ER-dependent transcriptional activity, 3xERE-luciferase reporter in T47D-KBluc cells. (In a reporter assay the amount or activity of a reporter protein is the signal.)
The test system of experiment [4] is T47D estrogen-depleted cells. Nature of the experiment: E2-induced proliferation of estrogen-depleted cells (AUC of growth kinetics). Format: cell-based. The settings on record: presence of E2 (0.1 nM), 10 days. Here is the method:
To monitor long-term growth, human ER+ BC (T47-D, MCF-7, MCF-7/BUS), ER+ endometrial (Ishiwaka, High Point, NC, USA), or non-malignant breast (MCF-10A) cells were seeded at 3000–6000 cells per well. […] When indicated, cells were estrogen-deprived in a 10DCC-FBS supplemented medium for one week. […] Cytotoxicity was monitored by using YOYO-1 (Invitrogen, Waltham, MA, USA). Cell proliferation and cytotoxicity were monitored by sequential real-time microphotographs in an IncuCyte HD real-time imaging system (Essen BioScience, Hertfordshire, UK) for 5–10 days. The area under the curve (AUC) was then analyzed to know both the kinetics and dose-effect relationships. […] Next, cells were treated with VEH (0.05% DMSO) or test compounds for 5–10 days. Spheroid size and cell cytotoxicity were recorded with the Incucyte SX5 Live-Cell Analysis Instrument (Sartorius AG, Göttingen, Germany). To calculate the spheroid growth area, confluence measurements were taken considering the largest brightfield object area (µm^2). Cytotoxicity was monitored by using YOYO-1 (Essen Bioscience, Hertfordshire, UK).

The test system of experiment [5] is ER+ cancer cells (i.e., MCF-7, MCF-7/BUS, T47D and Ishikawa cells). Description: MTT cell viability, summary over ER+ cancer cells. Format: cell-based. Particulars: Homo sapiens, read-out: IC50, viability of ER+ cancer cells, E2-non-depleted cells, text summary of Table 1 over MCF-7, MCF-7/BUS. Here is the method:
as §2

Experiment [6] relates to STAT3 transcriptional activity in HEK293 cells. Description: IL6-induced STAT3 transcriptional activity, Renilla reporter HEK-293 cells. The settings on record: hIL6 10 ng/ml.

Where two headings read alike, the source gives them in different places.

`COc1cccc2c1C(=O)c1c(O)c3c(c(O)c1C2=O)C[C@@](O)(C(=O)CO)C[C@@H]3O[C@H]1C[C@H](N)[C@H](O)[C@H](C)O1` [DOXO, doxorubicin, reference compound]: the IC50 with PBMC is 1.47 ± 0.69 µM; in the experiment on VERO cells (Primates, Vero), 2.62 ± 0.24 µM; in the experiment on T47D cells (Homo sapiens, T47D), 0.15 ± 0.02 µM; in the experiment on Hs-578T cells (Homo sapiens, Hs-578T) it was 0.37 ± 0.05 µM; with BT-549 cells (Homo sapiens, BT-549, 72 h), 0.19 ± 0.04 µM; in the experiment on MCF-7/BUS cells (Homo sapiens, MCF7/BUS), 0.05 ± 0.02 µM. Also, the IC50 in the experiment on SK-BR-3 cells (Homo sapiens, SK-BR-3, 72 h) stood at 0.04 ± 0.01 µM; with Ishikawa cells (Homo sapiens, Ishikawa), 0.09 ± 0.03 µM; in the experiment with MDA-MB-231 cells (Homo sapiens, MDA-MB-231, 72 h), 0.25 ± 0.07 µM; with MCF-10A cells (Homo sapiens, MCF-10A) it was 0.09 ± 0.01 µM; in the experiment on MCF-7 cells (Homo sapiens, MCF7, 72 h), 0.07 ± 0.01 µM.

Take `C[C@]12CC[C@@H]3c4ccc(O)cc4C[C@@H](CCCCCCCCC[S+]([O-])CCCC(F)(F)C(F)(F)F)[C@H]3[C@@H]1CC[C@@H]2O` (some centres unmarked) [ICI, ICI-182,780, reference compound]: the “effect on E2-induced mRNA expression” value is “blocked E2-induced mRNA levels of PR and pS2” in experiment [1]; “blocked E2-induced mRNA levels of PR and pS2” in experiment [2]. Moreover, the IC50 was over 10 µM in the experiment on VERO cells; 0.00019 µM in experiment [3] (read-out: IC50 (µM) on E2-induced luciferase activity, dose-response, 3 h pretreatment, then E2 0.1 nM 16–24 h); 0.0002 ± 8e-05 µM in experiment [3] (read-out: IC50 on E2-induced ER-dependent transcriptional activity, co-incubation with E2); 14.9 ± 5.19 µM in the experiment with T47D cells; over 25 µM in the experiment with Hs-578T cells; over 25 µM in the experiment on BT-549 cells (72 h). Moreover, the IC50 was 0.0006 µM in the experiment on MCF-7/BUS cells; over 50 µM in the experiment on SK-BR-3 cells (72 h); over 10 µM with Ishikawa cells; over 25 µM in the experiment with MDA-MB-231 cells (72 h); over 10 µM in the experiment on MCF-10A cells; 0.52 ± 0.16 µM with MCF-7 cells (72 h). Besides, the IC50 in experiment [4] is 0.000283 µM. For the same compound, in experiment [3] (compounds 10 µM, 3 h pretreatment, then vehicle 16–24 h, relative to Emax of E2), the “E/Emax (%) VEH” value is −9.15 ± 3.99%.

Take `COc1ccc(C2=CC(O)(c3ccc([N+](=O)[O-])cc3)N(Cc3ccccc3)C2=O)cc1` (centres unmarked) [compound 43, 1-benzyl-5-hydroxy-3-(4-methoxyphenyl)-5-(4-nitrophenyl)-1H-pyrrol-2(5H)-one]: the IC50 in experiment [5] was under 10 µM; with T47D cells (Homo sapiens, T47D) it was 8.57 ± 0.43 µM; in the experiment on Hs-578T cells (Homo sapiens, Hs-578T), over 10 µM; in the experiment on BT-549 cells (Homo sapiens, BT-549, 72 h), 6.23 ± 3.48 µM; in the experiment on MCF-7/BUS cells (Homo sapiens, MCF7/BUS), 2.85 ± 1.24 µM; in the experiment on SK-BR-3 cells (Homo sapiens, SK-BR-3, 72 h) it was 2.16 ± 0.05 µM. The IC50 in the experiment on Ishikawa cells (Homo sapiens, Ishikawa) was 3.47 ± 0.94 µM; in the experiment on MDA-MB-231 cells (Homo sapiens, MDA-MB-231, 72 h), over 10 µM; with MCF-7 cells (Homo sapiens, MCF7, 72 h), 6.54 ± 0.41 µM.

On to `COc1ccccc1C1=CC(O)(c2ccc([N+](=O)[O-])cc2)N(Cc2ccccc2)C1=O` (centres unmarked) [compound 49, 1-benzyl-5-hydroxy-3-(2-methoxyphenyl)-5-(4-nitrophenyl)-1H-pyrrol-2(5H)-one], for which the IC50 in experiment [5] is under 10 µM; in the experiment with T47D cells (Homo sapiens, T47D), over 10 µM; in the experiment on Hs-578T cells (Homo sapiens, Hs-578T), over 10 µM; in the experiment on BT-549 cells (Homo sapiens, BT-549, 72 h), over 10 µM; in the experiment on MCF-7/BUS cells (Homo sapiens, MCF7/BUS), 5 ± 1.79 µM; in the experiment with SK-BR-3 cells (Homo sapiens, SK-BR-3, 72 h) it was over 10 µM. Further, the IC50 was determined as 4.82 ± 1.84 µM in the experiment with Ishikawa cells (Homo sapiens, Ishikawa); 7.94 ± 2.07 µM in the experiment on MDA-MB-231 cells (Homo sapiens, MDA-MB-231, 72 h); 0.31 ± 0.03 µM in the experiment on MCF-10A cells (Homo sapiens, MCF-10A); 3.47 ± 1.12 µM in the experiment with MCF-7 cells (Homo sapiens, MCF7, 72 h).

With “hIL-6: pure agonist hIL6 (10 ng/mL) used to induce STAT3 transcriptional activity”, the “maximal luciferase activity or Emax” value in experiment [6] was found to be 10.08 ± 2.41 fold induction.
